Test results published in PubChem BioAssay AID493191 (Broad Institute, 2011).

System: MALME3 melanoma viability, CellTiter-Glo luminescence, 24 h
Test: growth inhibition of MALME3 cells – cell-based, CellTiter-Glo, cherry-picked, orthogonal assay for MITF inhibitor project, dose response (AID 493191)

Row | Compound | AC50
1 | COc1ccc(C(=O)/C=C/C(=O)N(CC(=O)NC2CCCCC2)Cc2ccc(F)cc2)c(O)c1 | 7.85 µM
2 | O=C1C(Cl)=C(N2CCN(c3ccccc3[N+](=O)[O-])CC2)C(=O)c2ccccc21 | 18.2 µM
3 | Cc1ccc(-n2cc(CNCCCn3ccnc3C)c(-c3ccc(F)cc3)n2)cc1 | 15.8 µM
4 | CCCCC[n+]1ccn(C2=C([O-])c3ccccc3C(=O)/C2=N\S(=O)(=O)c2ccccc2)c1 | 14.2 µM
5 | O=c1c(Cl)c2oc3ccccc3nc-2c2ccccc12 | 14.3 µM
6 | CCOC(=O)c1c(C)oc2c1C(=O)c1ccccc1C2=O | 7.25 µM
7 | Cc1cc(C)cc(OCC(=O)N/N=C/c2ccc([N+](=O)[O-])o2)c1 | 22.9 µM
8 | CN1CCN(c2ccc(NC(=O)c3ccc([N+](=O)[O-])o3)cc2Cl)CC1 | 21.3 µM
9 | Cc1c(N=C2C=CC(=O)c3ccccc32)c(=O)n(-c2ccccc2)n1C | 32 µM
10 | CCOC(=O)CCc1ccc(NC(=O)/C=C/c2ccc([N+](=O)[O-])o2)cc1 | 13.9 µM
11 | COC1=C(c2ccccc2)C(=O)c2ccccc2C1=O | 20.3 µM
12 | Cc1nc2ccccn2c1C(=O)N/N=C/c1ccc([N+](=O)[O-])o1 | 34 µM
13 | Cc1ccc2nc(C)cc(Nc3ccc([N+](=O)[O-])cc3)c2c1 | 31.5 µM
14 | Cn1cc([N+](=O)[O-])c(C(=O)Nc2nc(-c3ccc(Cl)cc3)cs2)n1 | 26.5 µM
15 | COc1ccc(-n2c(C)cc(C(=O)CCl)c2C)cc1 | 19.3 µM
16 | Cc1c(C(=O)Nc2ccc(S(=O)(=O)N(C)C3CCN(C)CC3)cc2)oc2c(Cl)cccc12 | 26.4 µM
17 | CCN1CCN(C2=C(NS(=O)(=O)c3ccc(Br)cc3)C(=O)c3ccccc3C2=O)CC1 | 20.1 µM
18 | O=C(/C=C/c1ccc(Cl)cc1)c1ccc([N+](=O)[O-])o1 | 24.5 µM
19 | C=C1C(=O)O[C@@H]2[C@H]1[C@@H](OC(=O)/C(C)=C/C)C/C(C)=C\C(=O)/C=C(\C)[C@@H]2O | 6.41 µM
20 | O=C(Nc1ccc(S(=O)(=O)NC2=NCCCCC2)cc1)c1ccc([N+](=O)[O-])s1 | 18.4 µM
21 | CC(NC(=O)C12CC3CC(CC(C3)C1)C2)C(=O)NN=Cc1ccc([N+](=O)[O-])o1 (centres undefined) | 26.9 µM
22 | O=C1Nc2ccc(Br)cc2/C1=C/C(=O)c1ccc2c(c1)OCO2 | 32 µM
23 | Cc1ccc(NC(=O)c2ccc([N+](=O)[O-])o2)cc1S(=O)(=O)N1CCOCC1 | 26.1 µM
24 | CCN(CC)CCNC(=O)C1CCN(S(=O)(=O)c2c(C)noc2/C=C/c2ccccc2F)CC1 | 30.4 µM
25 | O=C(N/N=C/c1ccc([N+](=O)[O-])o1)c1ccc(O)cc1 | 10.9 µM
26 | COc1cc(NC(=O)COc2ccccc2[N+](=O)[O-])ccc1NC(=O)c1cccs1 | 26.7 µM
27 | C=CCNC1=C(Cl)C(=O)c2ccccc2C1=O | 15.6 µM

Row | Compound | AC50
28 | CCN1CCN(CCCNC(=O)c2ccc3c(c2)NC(=O)/C(=C\c2cccc(C)c2)S3)CC1 | 28.1 µM
29 | CC1C/C(=C\c2cccnc2)C(=O)/C(=C/c2cccnc2)C1 (centres undefined) | 3.9 µM
30 | CCN1/C(=C/c2cc[n+](C)cc2)C=Cc2cc(C)ccc21 | 16.9 µM
31 | CCOc1c(Br)cc(CNC2CCCCCCC2)cc1OC | 27.6 µM
32 | Cc1cc(C(C)(C)C)cc(C)c1Cn1c2[n+](c3ccc(C(F)(F)F)cc31)CCCCC2 | 24.6 µM
33 | O=C(CS(=O)c1ccc(C(F)(F)F)cc1[N+](=O)[O-])Oc1ccccc1 (centres undefined) | 20.7 µM
34 | CNC(=O)COC(=O)c1ccccc1C(=O)c1ccc(Cl)c([N+](=O)[O-])c1 | 23.8 µM
35 | CC(C)(C)c1ccc(Cn2c(=N)n(CC(O)c3ccco3)c3ccccc32)cc1 (centres undefined) | 18.3 µM
36 | CC(=O)Nc1ccc(S(=O)(=O)NC2=C(N3CCN(C)CC3)C(=O)c3ccccc3C2=O)cc1 | 8.92 µM
37 | CCOC(=O)N1C(=O)[C@@](CC)(c2ccccc2)N1C(=O)OCC | 26.2 µM
38 | CC1CCC(C(C)C)C(OC(=O)Cn2c(-c3ccc(Cl)cc3)[n+](C)c3ccccc32)C1 (centres undefined) | 11.7 µM
39 | O=C1C(Nc2ccccc2)=C(N2CCCCC2)C(=O)c2ccccc21 | 18.2 µM
40 | COc1ccc(C)c2sc(N(CCN(C)C)C(=O)/C=C/c3cccs3)nc12 | 25.1 µM
41 | O=C(CCl)Nc1cccc(-c2cnc3ccccc3n2)c1 | 15.2 µM
42 | CCN1CCN(C2=C(NS(=O)(=O)c3ccc(C)cc3)C(=O)c3ccccc3C2=O)CC1 | 11.9 µM
43 | Cc1c(NC(=O)c2ccc([N+](=O)[O-])o2)cccc1-c1nc2ncccc2o1 | 15.4 µM
44 | Oc1c(CN2CCCCC2)cc(COCc2ccccc2)c2cccnc12 | 10.4 µM
45 | Cc1ccccc1-c1nc(-c2ccccn2)no1 | 22.2 µM
46 | CCN1CCN(c2ccc(NC(=O)c3ccc([N+](=O)[O-])o3)cc2Cl)CC1 | 14.4 µM
47 | O=C(CCl)N(c1ccccc1)C1CCCCC1 | 20.1 µM
48 | Cc1ccc(NC(=O)c2ncn(CCCN[C@H](C)c3cccc4ccccc34)n2)cc1C | 29.2 µM
49 | O=C(CNc1cccc2ccccc12)N/N=C/c1ccc([N+](=O)[O-])o1 | 16.3 µM
50 | CCN(CC)S(=O)(=O)c1ccc(NC(=O)c2cccnc2Cl)c(NC(=O)c2cccnc2Cl)c1 | 25.6 µM
51 | Cc1oc(-c2ccc(Cl)cc2)nc1CN1CCC(C(=O)NCCCN2CCCC(C)C2)CC1 (centres undefined) | 24.4 µM
52 | CCOCCCNC(=O)/C(C#N)=C/c1ccc([N+](=O)[O-])o1 | 12.6 µM
53 | CCc1cc[n+](C2=C([O-])c3ccccc3C(=O)/C2=N\S(=O)(=O)c2cccs2)cc1 | 4.51 µM
54 | CCC(=O)OCCNc1cc(Sc2nccn2C)c2nonc2c1[N+](=O)[O-] | 27.4 µM
